Assay results as given in paper PMC9305971, “Development of [^18F]AmBF3 Tetrazine for Radiolabeling of Peptides: Preclinical Evaluation and PET Imaging of [^18F]AmBF3-PEG7-Tyr^3-Octreotide in an AR42J Pancreatic Carcinoma Model” (Bioconjugate Chemistry, 2022).
Where two headings read alike, the source gives them in different places.

Experiments:
[1] = Lipophilicity, shake-flask log D7.4 (1-octanol/PBS); assay type: physicochemical; conditions: 1-octanol/PBS pH 7.4, n = 4
Experimental: Lipophilicity was determined with the shake-flask method as a distribution coefficient between 0.01 M PBS and octanol. Purified radiotracer [^18F]6 (10 μL, ∼200 kBq, 1.5 nmol), [^18F]14 (20 μL, ∼260 kBq, 125 pmol), or [^18F]15 (20 μL, 144 kBq, 67 pmol) in a polypropylene tube containing 1500–2000 μL of each in a 1:1 mixture (1-octanol, 0.02 M PBS, pH 7.4) was shaken mechanically (500 rpm, 10 min) and centrifuged (1000g, 5 min), and samples from each layer (400 μL, n = 4) were measured with a γ-counter. The log D7.4 was calculated as a distribution between the two layers at pH 7.4. [^18F]6 (10 MBq, 40 nmol) diluted with 0.01 M PBS at pH 7.4 (≤1% ethanol, 5300 μL) was incubated for 180 min. At selected time points (5, 30, 60, 90, 120, 150, and 180 min), a sample (100 μL) was injected to radio-HPLC. [^18F]14 and [^18F]15 (29 MBq, 10 nmol) diluted in 2000 μL of 0.01 M PBS (≤1% ethanol) were left to incubate. A sample of [^18F]14 (100 μL) after 9 hours and [^18F]15 at selected time points between 30 and 335 min were injected into HPLC (method A). [^18F]15 (0.6 MBq, 0.134 nmol, 200 μL) formulated in ≤5% EtOH-1 × PBS was added and incubated in 2000 μL of PBS-50% human plasma at 37 °C. A 100 μL sample (at 60, 120, 180, and 240 min, n = 2) was diluted with 200 μL of cold acetonitrile and centrifuged (10,000g, 5 min). After centrifugation, a 100 μL sample of the supernatant was injected for radio-HPLC analysis. […]
Lipophilicity. The lipophilicities were determined with the shake-flask method as a distribution profile between 0.01 M PBS and octanol at pH 7.4. The distribution of the radiolabeled compound between the octanol and the PBS layers was calculated according

[2] = Hydrolytic stability in 0.01 M PBS / formulated solution (radio-HPLC); assay type: physicochemical; conditions: 4% ethanol-0.01 M PBS (pH 7.4)
Experimental: Lipophilicity was determined with the shake-flask method as a distribution coefficient between 0.01 M PBS and octanol. Purified radiotracer [^18F]6 (10 μL, ∼200 kBq, 1.5 nmol), [^18F]14 (20 μL, ∼260 kBq, 125 pmol), or [^18F]15 (20 μL, 144 kBq, 67 pmol) in a polypropylene tube containing 1500–2000 μL of each in a 1:1 mixture (1-octanol, 0.02 M PBS, pH 7.4) was shaken mechanically (500 rpm, 10 min) and centrifuged (1000g, 5 min), and samples from each layer (400 μL, n = 4) were measured with a γ-counter. The log D7.4 was calculated as a distribution between the two layers at pH 7.4. [^18F]6 (10 MBq, 40 nmol) diluted with 0.01 M PBS at pH 7.4 (≤1% ethanol, 5300 μL) was incubated for 180 min. At selected time points (5, 30, 60, 90, 120, 150, and 180 min), a sample (100 μL) was injected to radio-HPLC. [^18F]14 and [^18F]15 (29 MBq, 10 nmol) diluted in 2000 μL of 0.01 M PBS (≤1% ethanol) were left to incubate. A sample of [^18F]14 (100 μL) after 9 hours and [^18F]15 at selected time points between 30 and 335 min were injected into HPLC (method A). [^18F]15 (0.6 MBq, 0.134 nmol, 200 μL) formulated in ≤5% EtOH-1 × PBS was added and incubated in 2000 μL of PBS-50% human plasma at 37 °C. A 100 μL sample (at 60, 120, 180, and 240 min, n = 2) was diluted with 200 μL of cold acetonitrile and centrifuged (10,000g, 5 min). After centrifugation, a 100 μL sample of the supernatant was injected for radio-HPLC analysis.

[3] = Distribution of radioactivity in blood components after i.v. administration; assay type: in vivo, mice
Experimental: Whole blood from mice were extracted during ex vivo studies, using cardiac puncture. The sample was applied in a microtube containing 1% heparin solution in 0.9% NaCl (aq.) (2 μL); the sample was centrifuged (1000g, 10 min), the total radioactivity in the sample was measured with a γ counter, the supernatant was separated from the pellet (RBC containing fraction), and cold ACN (500 μL) was added. The sample was centrifuged (10,000g, 5 min) to remove the free fraction from the precipitated protein-containing pellet. The pellet (protein-bound fraction) and the supernatant (free fraction) were measured with a γ counter, and a sample (100 μL) was injected into HPLC and spotted (4 μL) on a TLC plate (radio-TLC, TLC silica gel 60 F254, ACN/water 80:20).

[4] = 60 min post injection, blocked with octreotide

SMILES | logD [1] | stability in the formulated solution ([2]; sampled at 9 h) | protein bound fraction ([3]; 5 min post injection) [%] | radioactivity bound to red blood cells ([3]; 5 min post injection) [%] | radioactivity bound to red blood cells ([3]; 5 min post injection, listed as [18F]14) [%] | protein bound fraction ([3]; 60 min post injection) [%] | radioactivity bound to red blood cells ([3]; 60 min post injection) [%] | protein bound fraction [3, 4] [%] | radioactivity bound to red blood cells [3, 4] [%] | radioactivity bound to red blood cells ([3]; 60 min post injection, blocked with octreotide, listed as [18F]14) [%] | radioactivity bound to red blood cells ([3]; 60 min post injection, listed as [18F]14) [%] | fraction unbound at 5 min ([3]; mouse, whole blood, intravenous, 5 min post injection, read-out: free fraction) | fraction unbound at 60 min ([3]; mouse, whole blood, intravenous, 60 min post injection, blocked with octreotide, read-out: free fraction) | fraction unbound at 60 min ([3]; mouse, whole blood, intravenous, 60 min post injection, read-out: free fraction) | log D7.4 [1] | stability in the formulated solution ([2]; several time points up to 6 h)
C[C@@H](O)[C@@H]1NC(=O)[C@H](CCCCN)NC(=O)[C@@H](Cc2c[nH]c3ccccc23)NC(=O)[C@H](Cc2ccc(O)cc2)NC(=O)[C@@H](NC(=O)[C@@H](Cc2ccccc2)NC(=O)CCOCCOCCOCCOCCON=Cc2ccc(CNC(=O)OC3CCCc4cnnc(-c5ccc(CC(=O)NCC[N+](C)(C)C[B-](F)(F)F)cc5)c4CC3)cc2)CSSC[C@@H](C(=O)N[C@H](CO)[C@@H](C)O)NC1=O (some centres unmarked) [[^18F]14] | -0.58 ± 0.06 | stable | 5.5 | 22 | 21.6 | 7.00 | 25 | 14.6 | 29.7 ± 2.9 | 29.7 | 24.5 | 0.729 ± 0.051 | 0.557 ± 0.114 | 0.685 ± 0.053 | – | –
C[C@@H](O)[C@@H]1NC(=O)[C@H](CCCCN)NC(=O)[C@@H](Cc2c[nH]c3ccccc23)NC(=O)[C@H](Cc2ccc(O)cc2)NC(=O)[C@@H](NC(=O)[C@@H](Cc2ccccc2)NC(=O)CCOCCOCCOCCOCCON=Cc2ccc(C(=O)NCCOCCOCCOCCNC(=O)OC3CCCc4cnnc(-c5ccc(CC(=O)NCC[N+](C)(C)C[B-](F)(F)F)cc5)c4CC3)cc2)CSSC[C@@H](C(=O)N[C@H](CO)[C@@H](C)O)NC1=O (some centres unmarked) [[^18F]15] | -0.7 ± 0.1 | – | – | – | – | – | – | – | – | – | – | – | – | – | −0.73 ± 0.12 | stable
